{"source": "ChEMBL document CHEMBL4007412", "about": "“Design, Synthesis, and Biological Evaluation of Mitochondria-Targeted Flavone-Naphthalimide-Polyamine Conjugates with Antimetastatic Activity” (J Med Chem, 2017)", "key": {"SMMC-7721 [1]": {"test_system": "SMMC-7721", "assay": "Cytotoxicity against human SMMC7721 cells assessed as cell growth inhibition after 48 hrs by MTT assay", "assay_type": "functional, cell-based", "details": "SMMC-7721, 48 h"}, "[2]": {"assay": "Cytotoxicity against human QSG7701 cells assessed as cell growth inhibition after 48 hrs by MTT assay", "assay_type": "cell-based", "details": "QSG7701, 48 h"}, "HepG2 [3]": {"test_system": "HepG2", "assay": "Inhibition of colony formation of human HepG2 cells up to 20 uM […] by crystal violet staining based colony formation assay", "assay_type": "functional, cell-based"}, "SMMC-7721 [4]": {"test_system": "SMMC-7721", "assay": "Cytotoxicity against human SMMC7721 cells assessed as reduction in cell viability up to 20 uM after 24 to 72 hrs by MTT assay", "assay_type": "functional, cell-based"}, "HepG2 [5]": {"test_system": "HepG2", "assay": "Cytotoxicity against human HepG2 cells assessed as reduction in cell viability up to 20 uM after 24 to 72 hrs by MTT assay", "assay_type": "functional, cell-based"}, "[6]": {"assay": "Cytotoxicity against human QSG7701 cells assessed as reduction in cell viability up to 20 uM after 24 to 72 hrs by MTT assay", "assay_type": "cell-based"}, "H22 [7]": {"test_system": "H22", "assay": "Antitumor activity against […] xenografted in Kunming mouse assessed as suppression of tumor weight at 3 mg/kg, iv dosed every day starting from day 8 after tumor cell inoculation", "assay_type": "functional"}, "Mus musculus [8]": {"test_system": "Mus musculus", "assay": "Toxicity in Kunming mouse xenografted with […] cells assessed as effect on heart weight index at 3 mg/kg, iv dosed every day starting from day 8 after tumor cell inoculation", "assay_type": "organism-based", "details": "in vivo"}, "Mus musculus [9]": {"test_system": "Mus musculus", "assay": "Toxicity in Kunming mouse xenografted with […] cells assessed as effect on spleen weight index at 3 mg/kg, iv dosed every day starting from day 8 after tumor cell inoculation", "assay_type": "organism-based", "details": "in vivo"}, "[10]": {"assay": "Drug uptake in human HepG2 cells assessed as PAT-mediated cellular uptake after 8 hrs by HCS analysis", "assay_type": "ADME, cell-based"}, "[11]": {"assay": "Drug uptake in human HepG2 cells assessed as PAT-mediated cellular uptake at 10 uM by HCS analysis", "assay_type": "ADME, cell-based", "details": "TDE = time-dependent effect"}, "[12]": {"assay": "Drug uptake in human SMMC7721 cells assessed as PAT-mediated cellular uptake at 10 uM by HCS analysis", "assay_type": "ADME, cell-based", "details": "TDE = time-dependent effect"}, "[13]": {"assay": "Drug uptake in human HepG2 cells assessed as PAT-mediated compound uptake by measuring fluorescent intensity at 10 uM after 2 to 8 hrs in presence of spermidine by HCS analysis", "assay_type": "ADME, cell-based"}, "HepG2 [14]": {"test_system": "HepG2", "assay": "Effect on ODC expression in human HepG2 cells at 5 to 20 uM after 24 hrs by Western blot analysis", "assay_type": "functional, cell-based"}, "SMMC-7721 [15]": {"test_system": "SMMC-7721", "assay": "Effect on ODC expression in human SMMC7721 cells at 5 to 20 uM after 24 hrs by Western blot analysis", "assay_type": "functional, cell-based"}, "HepG2 [16]": {"test_system": "HepG2", "assay": "Effect on spermidine levels in human HepG2 cells at 20 uM after 24 hrs by HPLC analysis", "assay_type": "functional, cell-based"}, "HepG2 [17]": {"test_system": "HepG2", "assay": "Effect on spermine levels in human HepG2 cells at 20 uM after 24 hrs by HPLC analysis", "assay_type": "functional, cell-based"}, "SMMC-7721 [18]": {"test_system": "SMMC-7721", "assay": "Effect on spermine levels in human SMMC7721 cells at 20 uM after 24 hrs by HPLC analysis", "assay_type": "functional, cell-based"}, "[19]": {"assay": "Drug localization in human HepG2 cell nucleus at 10 uM after 8 hrs by propidium iodide-staining based microscopic analysis", "assay_type": "ADME"}, "[20]": {"assay": "Drug localization in human HepG2 cell lysosomes at 10 uM after 8 hrs by Lyso tracker-staining based confocal microscopic analysis", "assay_type": "ADME, Lysosome"}, "[21]": {"assay": "Drug localization in human HepG2 cell endoplasmic reticulum at 10 uM after 8 hrs by ER tracker-staining based confocal microscopic analysis", "assay_type": "ADME"}, "[22]": {"assay": "Drug localization in human HepG2 cell golgi apparatus at 10 uM after 8 hrs by Golgi tracker-staining based confocal microscopic analysis", "assay_type": "ADME"}, "[23]": {"assay": "Drug localization in human HepG2 cell mitochondria at 10 uM after 8 hrs by Mito tracker-staining based confocal microscopic analysis", "assay_type": "ADME"}, "[24]": {"assay": "Drug localization in mitochondria of human HepG2 cells at 10 uM after 8 hrs by UV-bright field microscopic analysis", "assay_type": "ADME"}, "HepG2 [25]": {"test_system": "HepG2", "assay": "Induction of apoptosis in human HepG2 cells assessed as reduction in viable cells up to 20 uM after 24 hrs by AO/EB double staining based flow cytometric analysis", "assay_type": "functional, cell-based"}, "HepG2 [26]": {"test_system": "HepG2", "assay": "Induction of apoptosis in human HepG2 cells assessed as increase in apoptotic cells up to 20 uM after 24 hrs by AO/EB double staining based flow cytometric analysis", "assay_type": "functional, cell-based"}, "HepG2 [27]": {"test_system": "HepG2", "assay": "Induction of apoptosis in human HepG2 cells assessed as necrotic cells at 20 uM after 24 hrs by Annexin V-FITC/propidium iodide staining based flow cytometric analysis (reference value: 2.99 %)", "assay_type": "functional"}, "[28]": {"assay": "Induction of apoptosis in human QSG7701 cells assessed as up-regulation of caspase 3 expression up to 20 uM after 24 hrs by Western blot analysis", "assay_type": "cell-based", "details": "qsg7701, 24 h"}, "HepG2 [29]": {"test_system": "HepG2", "assay": "Induction of intracellular ROS generation in human HepG2 cells at 20 uM after 8 hrs by DCFH-DA staining based HCS analysis relative to control", "assay_type": "functional"}, "[30]": {"assay": "Induction of intracellular ROS generation in human QSG7701 cells at 20 uM after 8 hrs by DCFH-DA staining based HCS analysis relative to control", "assay_type": "cell-based", "details": "qsg7701, 8 h"}, "HepG2 [31]": {"test_system": "HepG2", "assay": "Induction of H2O2 production in human HepG2 cells", "assay_type": "functional, cell-based"}, "HepG2 [32]": {"test_system": "HepG2", "assay": "Induction of ROS generation in human HepG2 cells at 20 uM after 24 hrs in presence of NAC by DCFH-DA-staining based HCS analysis", "assay_type": "functional, cell-based"}, "HepG2 [33]": {"test_system": "HepG2", "assay": "Induction of ROS generation in human HepG2 cells at 20 uM after 24 hrs in presence of TOC by DCFH-DA-staining based HCS analysis", "assay_type": "functional, cell-based"}, "HepG2 [34]": {"test_system": "HepG2", "assay": "Induction of ROS generation in human HepG2 cells at 20 uM after 24 hrs in presence of CAT by DCFH-DA-staining based HCS analysis", "assay_type": "functional, cell-based"}, "HepG2 [35]": {"test_system": "HepG2", "assay": "Antiproliferative activity against human HepG2 cells assessed as reduction in cell viability at 20 uM pre-treated with NAC after 48 hrs by MTT assay", "assay_type": "functional, cell-based"}, "HepG2 [36]": {"test_system": "HepG2", "assay": "Antiproliferative activity against human HepG2 cells assessed as reduction in cell viability at 20 uM pre-treated with CAT after 48 hrs by MTT assay", "assay_type": "functional, cell-based"}, "SMMC-7721 [37]": {"test_system": "SMMC-7721", "assay": "Antiproliferative activity against human SMMC7721 cells assessed as reduction in cell viability at 20 uM pre-treated with CAT after 48 hrs by MTT assay", "assay_type": "functional, cell-based"}, "HepG2 [38]": {"test_system": "HepG2", "assay": "Induction of cleaved PARP expression in human HepG2 cells up to 20 uM pre-treated with NAC measured after 24 hrs by Western blot analysis", "assay_type": "functional, cell-based"}, "HepG2 [39]": {"test_system": "HepG2", "assay": "Inhibition of cell migration in human HepG2 cells pretreated with NAC measured after 24 hrs by transwell assay", "assay_type": "functional, cell-based"}, "H22 [40]": {"test_system": "H22", "assay": "Antimetastatic activity against […] xenografted in pulmonary metastasis Kunming mouse model assessed as reduction in tumor metastatic nodules at 3 mg/kg, iv dosed every day starting from day 8 after tumor cell inoculation by H/E staining based leica microscopic analysis", "assay_type": "functional, organism-based"}, "HepG2 [41]": {"test_system": "HepG2", "assay": "Induction of superoxide production in human HepG2 cells at 20 uM after 24 hrs by microplate reader based assay", "assay_type": "functional, cell-based"}, "HepG2 [42]": {"test_system": "HepG2", "assay": "Induction of p53 expression in human HepG2 cells up to 20 uM after 24 hrs by immunofluoresence assay relative to control", "assay_type": "functional, cell-based"}}, "note": "Calls of active or inactive are those of the source. The calls are words filed in the database; no cut-off is given here.", "data": [{"compound": "Cl.Cl.NCCCCNCCCCN1C(=O)c2cccc3c(-c4cc(=O)c5ccccc5o4)ccc(c23)C1=O", "values": [{"measurement": "IC50", "setting": "SMMC-7721 [1]", "result": 14.1, "unit": "µM"}, {"measurement": "IC50", "setting": "[2]", "result": "> 50", "unit": "µM"}, {"measurement": "Activity", "setting": "HepG2 [3]", "result": "Active"}, {"measurement": "Activity", "setting": "SMMC-7721 [4]", "result": "Active"}, {"measurement": "Activity", "setting": "HepG2 [5]", "result": "Active"}, {"measurement": "Activity", "setting": "[6]", "result": "Non-Toxic"}, {"measurement": "Activity", "setting": "H22 [7]", "result": 60.4, "unit": "%"}, {"measurement": "Activity", "setting": "Mus musculus [8]", "result": "Non-Toxic"}, {"measurement": "Activity", "setting": "Mus musculus [9]", "result": "Non-Toxic"}, {"measurement": "Drug uptake", "setting": "[10]", "result": "Dose-dependent effect"}, {"measurement": "Drug uptake", "setting": "[11]", "result": "Tde"}, {"measurement": "Drug uptake", "setting": "[12]", "result": "Tde"}, {"measurement": "Drug uptake", "setting": "[13]", "result": "Not Active"}, {"measurement": "Activity", "setting": "HepG2 [14]", "result": "inactive"}, {"measurement": "Activity", "setting": "SMMC-7721 [15]", "result": "inactive"}, {"measurement": "Activity", "setting": "HepG2 [16]", "result": "inactive"}, {"measurement": "Activity", "setting": "HepG2 [17]", "result": "inactive"}, {"measurement": "Activity", "setting": "SMMC-7721 [18]", "result": "inactive"}, {"measurement": "Drug uptake", "setting": "[19]", "result": "Not Active"}, {"measurement": "Drug uptake", "setting": "[20]", "result": "Not Active"}, {"measurement": "Drug uptake", "setting": "[21]", "result": "Not Active"}, {"measurement": "Drug uptake", "setting": "[22]", "result": "Not Active"}, {"measurement": "Drug uptake", "setting": "[23]", "result": "Active"}, {"measurement": "Drug uptake", "setting": "[24]", "result": "Active"}, {"measurement": "Activity", "setting": "HepG2 [25]", "result": "Dose-dependent effect"}, {"measurement": "Activity", "setting": "HepG2 [26]", "result": "Dose-dependent effect"}, {"measurement": "Activity", "setting": "HepG2 [27]", "result": 8.91, "unit": "%"}, {"measurement": "Activity", "setting": "[28]", "result": "Non-Toxic"}, {"measurement": "fold change (FC)", "setting": "HepG2 [29]", "result": 2.6}, {"measurement": "Activity", "setting": "[30]", "result": "Non-Toxic"}, {"measurement": "Activity", "setting": "HepG2 [31]", "result": "Active"}, {"measurement": "Activity", "setting": "HepG2 [32]", "result": "inactive"}, {"measurement": "Activity", "setting": "HepG2 [33]", "result": "inactive"}, {"measurement": "Activity", "setting": "HepG2 [34]", "result": "inactive"}, {"measurement": "Activity", "setting": "HepG2 [35]", "result": "inactive"}, {"measurement": "Activity", "setting": "HepG2 [36]", "result": "inactive"}, {"measurement": "Activity", "setting": "SMMC-7721 [37]", "result": "inactive"}, {"measurement": "Activity", "setting": "HepG2 [38]", "result": "inactive"}, {"measurement": "inhibition", "setting": "HepG2 [39]", "result": "inactive"}, {"measurement": "Activity", "setting": "H22 [40]", "result": "Active"}, {"measurement": "Activity", "setting": "HepG2 [41]", "result": "Active"}, {"measurement": "Activity", "setting": "HepG2 [42]", "result": "Dose-dependent effect"}]}]}
